Source: patent US8486958B2, “Crystalline forms of a 3-carboxypropyl-aminotetralin compound” (priority 2008, dated 2013)

What was measured:
[1] = Dynamic moisture sorption assessment; type: physicochemical; conditions: for deliquescence: up to about 90% relative humidity at room temperature
Description: Dynamic moisture sorption (DMS) assessment was performed at 25° C. using a VTI atmospheric microbalance, SGA-100 system (VTI Corp., Hialeah, Fla. 33016). […] A typical DMS analysis consisted of three or four scans: ambient to 2% relative humidity (RH), 2% RH to 90% RH, 90% RH to 5% RH at a scan rate of 5% RH/step, and, in some case a second adsorption 2% RH to 90% RH. The mass was measured every two minutes and the RH was changed to the next value (±5% RH) when the mass of the sample was stable to within 0.02% for 5 consecutive points.

human mu opioid receptor [2] = molecular target: T1, human mu opioid receptor (Homo sapiens, UniProt P35372); assay: Human mu GTP-Eu nucleotide exchange assay (agonist mediated activation); type: biochemical; conditions: relative to DAMGO as full agonist; read-out: intrinsic activity (IA), bound GTP-Eu relative to DAMGO (IA=100)
T1 construct: expressed in transfected cells; host or cells: CHO-K1
T1 sequence (P35372 whole entry): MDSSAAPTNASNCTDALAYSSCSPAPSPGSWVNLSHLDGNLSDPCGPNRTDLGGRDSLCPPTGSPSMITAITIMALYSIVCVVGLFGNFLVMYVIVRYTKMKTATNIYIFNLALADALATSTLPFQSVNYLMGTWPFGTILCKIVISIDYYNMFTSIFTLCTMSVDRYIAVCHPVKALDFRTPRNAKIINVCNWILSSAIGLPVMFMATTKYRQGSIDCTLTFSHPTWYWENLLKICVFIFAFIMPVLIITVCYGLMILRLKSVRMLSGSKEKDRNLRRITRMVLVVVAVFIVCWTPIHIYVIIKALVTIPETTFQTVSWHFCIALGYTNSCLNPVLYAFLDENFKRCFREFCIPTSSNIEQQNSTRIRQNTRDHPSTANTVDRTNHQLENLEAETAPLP

human mu opioid receptor [3] = molecular target: T1, human mu opioid receptor; assay: Radioligand binding assay, [3H]-Diprenorphine displacement, CHO-K1 membranes
[4] = test system: motility of the gastrointestinal (GI) tract; assay: Gastrointestinal motility in animal models; type: in vivo
[5] = test system: loperamide-induced delayed gastric emptying; assay: Rat gastric emptying assay (reversal of loperamide-induced delay); type: in vivo; conditions: administered orally, loperamide 1 mg/kg s.c.
Description: Assay 3: Rat Model of In Vivo Efficacy In this assay the efficacy of test compounds was evaluated in a model of gastrointestinal transit, which evaluates peripheral activity. This study was approved by the Institutional Animal Care and Use Committee at […]. and conformed to the Guide for the Care and Use of Laboratory Animals published by the National Academy of Sciences (©1996). Test compounds were evaluated in the rat gastric emptying assay to determine their ability to reverse loperamide-induced delayed gastric emptying. Rats were fasted up overnight prior to administration of test compounds or vehicle by intravenous, subcutaneous, intramuscular or oral routes of administration at doses ranging from 0.001 to about 30 milligrams/kilogram (mg/kg). The administration of test compound was followed by subcutaneous administration of loperamide at a dose of 1 mg/kg or vehicle. […] Gastric weight was then determined after removal of the ligatures. Data was analyzed using the GraphPad Prism Software package (GraphPad Software, Inc., San Diego, Calif.). Percent reversal curves were constructed by non-linear regression analysis using the sigmoidal dose response (variable slope) model and best-fit ID50 values were calculated. […]

[6] = Thermogravimetric analysis (TGA); type: physicochemical; conditions: temperatures below the melting point
Description: Thermogravimetric analysis (TGA) was performed using a TA Instruments Model Q-500 module. Data were collected and analyzed using TA Instruments Thermal Advantage for Q Series™ software. A sample weighing about 1-5 mg was placed in an aluminum pan on a platinum cradle and scanned from ambient temperature to 300° C. with a linear heating rate of 10° C./min. The balance and furnace chambers were purged with nitrogen during use. Representative TGA traces for samples of crystalline Form I and of a crystalline hydrochloride salt of compound 1 are also shown in FIGS. 2 and 7, respectively.

## CCC1(CC)c2cc(C(N)=O)ccc2C[C@H](OC)[C@H]1NCC[C@H](CC1CCCCC1)C(=O)O.Cl [(S)-4-((2S,3S)-7-Carbamoyl-1,1-diethyl-3-methoxy-1,2,3,4-tetrahydronaphthalen-2-ylamino)-2-cyclohexylmethyl-butyric acid hydrochloride]
[1]; about 2% to about 90% relative humidity at room temperature
  appearance and flowability on exposure to humidity: retained their appearance and flowability
[1]
  deliquescence: neither crystalline compound 1 nor the crystalline hydrochloride salt of compound 1 is deliquescent

## CCC1(CC)c2cc(C(N)=O)ccc2C[C@H](OC)[C@H]1NCC[C@H](CC1CCCCC1)C(=O)O [Compound 1, (S)-4-((2S,3S)-7-carbamoyl-1,1-diethyl-3-methoxy-1,2,3,4-tetrahydronaphthalen-2-ylamino)-2-cyclohexylmethyl-butyric acid]
Human mu opioid receptor [2]
  Emax: -8%
Human mu opioid receptor [3]
  Ki: 0.398 nM
[4]
  effect on motility of the gastrointestinal tract: increase motility of the gastrointestinal (GI) tract
[5]
  ID50, dose required for 50% reversal of the effects of loperamide: 0.09 mg/kg

## CCC1(CC)c2cc(C(N)=O)ccc2C[C@H](OC)[C@H]1NCC[C@H](CC1CCCCC1)C(=O)O [Form I, (S)-4-((2S,3S)-7-carbamoyl-1,1-diethyl-3-methoxy-1,2,3,4-tetrahydronaphthalen-2-ylamino)-2-cyclohexylmethyl-butyric acid]
[1]; 40% to 75% relative humidity
  weight gain (moisture sorption): less than 1%
[6]
  TGA weight loss: no significant weight loss

## CCC1(CC)c2cc(C(N)=O)ccc2C[C@H](OC)[C@H]1NCC[C@H](CC1CCCCC1)C(=O)O [crystalline compound 1, (S)-4-((2S,3S)-7-carbamoyl-1,1-diethyl-3-methoxy-1,2,3,4-tetrahydronaphthalen-2-ylamino)-2-cyclohexylmethyl-butyric acid]
[1]; 2% to 90% relative humidity, room temperature
  weight gain (moisture sorption): less than 2.5%
[1]
  deliquescence: neither crystalline compound 1 nor the crystalline hydrochloride salt of compound 1 is deliquescent
